Assay results published in ChEMBL document CHEMBL4334464, “From Phenylthiazoles to Phenylpyrazoles: Broadening the Antibacterial Spectrum toward Carbapenem-Resistant Bacteria” (J Med Chem, 2019).
Converted amounts (≈) assume the structure as drawn. The source made the active and inactive calls. No cut-off for these calls is given here.

How the values were obtained:
[1] = tested on: Staphylococcus aureus; test: Antibacterial activity against methicillin-resistant Staphylococcus aureus NRS384-USA300 clinical isolates after 18 to 20 hrs in aerobic condition by CLSI protocol based broth microdilution assay; type: functional
[2] = tested on: Staphylococcus aureus; test: Antibacterial activity against Methicillin-sensitive Staphylococcus aureus ATCC 6538 clinical isolates after 18 to 20 hrs in aerobic condition by CLSI protocol based broth microdilution assay; type: functional
[3] = tested on: Staphylococcus aureus; test: Antibacterial activity against Methicillin-resistant Staphylococcus aureus NRS123-USA400 clinical isolates after 18 to 20 hrs in aerobic condition by CLSI protocol based broth microdilution assay; type: functional
[4] = tested on: Staphylococcus aureus; test: Antibacterial activity against Methicillin-resistant Staphylococcus aureus USA700-NRS386 clinical isolates after 18 to 20 hrs in aerobic condition by CLSI protocol based broth microdilution assay; type: functional
[5] = tested on: Staphylococcus aureus; test: Antibacterial activity against vancomycin-resistant Staphylococcus aureus isolate 10 after 18 to 20 hrs in aerobic condition by CLSI-based broth microdilution assay; type: functional
[6] = tested on: Staphylococcus aureus; test: Antibacterial activity against vancomycin-resistant Staphylococcus aureus isolate 12 after 18 to 20 hrs in aerobic condition by CLSI-based broth microdilution assay; type: functional
[7] = tested on: Staphylococcus aureus; test: Bactericidal activity against methicillin-resistant Staphylococcus aureus NRS123-USA400 clinical isolates at 5 times MIC incubated over 24 hrs followed by replating on tryptic soy agar plate and further incubated for 18 to 20 hrs by time kill assay; type: functional, organism-based
[8] = tested on: Enterococcus faecalis; test: Antibacterial activity against vancomycin-resistant Enterococcus faecalis ATCC 51299 clinical isolates after 18 to 20 hrs in aerobic condition by CLSI-based broth microdilution assay; type: functional
[9] = tested on: Streptococcus pneumoniae; test: Antibacterial activity against methicillin-resistant Streptococcus pneumoniae ATCC 700677 clinical isolates after 18 to 20 hrs by CLSI-based broth microdilution assay; type: functional
[10] = tested on: Acinetobacter baumannii; test: Antibacterial activity against Acinetobacter baumannii ATCC BAA 1141 clinical isolates after 18 to 20 hrs in aerobic condition by CLSI-based broth microdilution assay; type: functional
[11] = tested on: Acinetobacter baumannii; test: Antibacterial activity against Acinetobacter baumannii NR 17785 clinical isolates after 18 to 20 hrs in aerobic condition by CLSI-based broth microdilution assay; type: functional
[12] = tested on: Escherichia coli; test: Antibacterial activity against Escherichia coli BW25113 clinical isolates after 18 to 20 hrs in aerobic condition by CLSI-based broth microdilution assay; type: functional
[13] = tested on: Escherichia coli; test: Antibacterial activity against Escherichia coli ATCC 25922 clinical isolates after 18 to 20 hrs in aerobic condition by CLSI-based broth microdilution assay; type: functional
[14] = Antibacterial activity against Enterobacter cloacae subsp. cloacae ATCC BAA-1143 clinical isolates after 18 to 20 hrs in aerobic condition by CLSI-based broth microdilution assay; type: functional
[15] = tested on: Salmonella enteritidis; test: Antibacterial activity against Salmonella enteritidis ATCC 13076 clinical isolates after 18 to 20 hrs in aerobic condition by CLSI-based broth microdilution assay; type: functional, Salmonella enterica subsp. enterica serovar Enteritidis; conditions: Salmonella enterica
[16] = tested on: Salmonella enteritidis; test: Antibacterial activity against Salmonella enteritidis ATCC 14028 clinical isolates after 18 to 20 hrs in aerobic condition by CLSI-based broth microdilution assay; type: functional, Salmonella enterica subsp. enterica serovar Enteritidis; conditions: Salmonella enterica
[17] = tested on: Salmonella typhimurium; test: Antibacterial activity against Salmonella typhimurium ATCC 700720 after 18 to 20 hrs in aerobic condition by CLSI-based broth microdilution assay; type: functional, Salmonella enterica subsp. enterica serovar Typhimurium; conditions: Salmonella enterica
[18] = tested on: Klebsiella pneumoniae; test: Antibacterial activity against carbapenem-resistant Klebsiella pneumoniae ATCC BAA-1705 clinical isolates after 18 to 20 hrs in aerobic condition by CLSI-based broth microdilution assay; type: functional
[19] = tested on: Klebsiella pneumoniae; test: Antibacterial activity against carbapenem-resistant Klebsiella pneumoniae ATCC BAA-2146 clinical isolates after 18 to 20 hrs in aerobic condition by CLSI-based broth microdilution assay; type: functional
[20] = tested on: Pseudomonas aeruginosa; test: Antibacterial activity against carbapenem-resistant Pseudomonas aeruginosa ATCC 1744 clinical isolates after 18 to 20 hrs in aerobic condition by CLSI-based broth microdilution assay; type: functional
[21] = biological target: T1, Ditrans,polycis-undecaprenyl-diphosphate synthase ((2E,6E)-farnesyl-diphosphate specific) (Escherichia coli (strain K12)) (UniProt P60472); test: Inhibition of Escherichia coli UPPS using FPP/IPP as substrate preincubated for 30 mins followed by substrates addition and measured after 30 mins by malachite green reagent based assay
T1 sequence (whole entry): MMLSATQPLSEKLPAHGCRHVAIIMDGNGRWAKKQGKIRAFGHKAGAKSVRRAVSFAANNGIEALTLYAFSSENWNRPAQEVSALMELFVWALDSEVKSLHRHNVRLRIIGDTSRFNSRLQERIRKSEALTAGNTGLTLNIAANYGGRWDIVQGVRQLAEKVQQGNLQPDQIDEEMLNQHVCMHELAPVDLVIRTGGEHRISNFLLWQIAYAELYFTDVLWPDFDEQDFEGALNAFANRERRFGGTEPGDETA

[22] = tested on: Staphylococcus aureus; test: Ratio of MBC to MIC for Methicillin-sensitive Staphylococcus aureus ATCC 6538 clinical isolates; type: functional
[23] = tested on: Enterococcus faecium; test: Ratio of MBC to MIC for vancomycin-resistant Enterococcus faecium ATCC 700221 clinical isolates; type: functional
[24] = tested on: Listeria monocytogenes; test: Ratio of MBC to MIC for Listeria monocytogenes ATCC 19111 clinical isolates; type: functional
[25] = tested on: Streptococcus pneumoniae; test: Ratio of MBC to MIC for cephalosporin-resistant Streptococcus pneumoniae ATCC 51916 clinical isolates; type: functional
[26] = tested on: Acinetobacter baumannii; test: Ratio of MBC to MIC for Acinetobacter baumannii ATCC 19606 clinical isolates; type: functional, ATCC 19606 = CIP 70.34 = JCM 6841
[27] = tested on: Acinetobacter baumannii; test: Ratio of MBC to MIC for Acinetobacter baumannii ATCC BAA 1747 clinical isolates; type: functional
[28] = tested on: Escherichia coli; test: Ratio of MBC to MIC for Escherichia coli ATCC 25922 clinical isolates; type: functional
[29] = tested on: Escherichia coli; test: Ratio of MBC to MIC for Escherichia coli ATCC 35150 clinical isolates; type: functional
[30] = tested on: Escherichia coli; test: Ratio of MBC to MIC for Escherichia coli ATCC 1411 clinical isolates; type: functional
[31] = tested on: Enterobacter cloacae subsp. cloacae; test: Ratio of MBC to MIC for Enterobacter cloacae subsp. cloacae ATCC BAA-1143 clinical isolates; type: functional
[32] = tested on: Klebsiella pneumoniae; test: Ratio of MBC to MIC for Klebsiella pneumoniae BAA-1144 clinical isolates; type: functional
[33] = tested on: Salmonella enterica; test: Ratio of MBC to MIC for Salmonella enterica NR-170 clinical isolates; type: functional
[34] = tested on: Salmonella enteritidis; test: Ratio of MBC to MIC for Salmonella enteritidis ATCC 14028 clinical isolates; type: functional, Salmonella enterica subsp. enterica serovar Enteritidis
[35] = tested on: Shigella flexneri; test: Ratio of MBC to MIC for Shigella flexneri ATCC 9199 clinical isolates; type: functional
[36] = tested on: Pseudomonas aeruginosa; test: Ratio of MBC to MIC for Pseudomonas aeruginosa ATCC 9027 clinical isolates; type: functional
[37] = tested on: Pseudomonas aeruginosa; test: Ratio of MBC to MIC for Pseudomonas aeruginosa ATCC 25619 clinical isolates; type: functional
[38] = tested on: Pseudomonas aeruginosa; test: Ratio of MBC to MIC for Pseudomonas aeruginosa ATCC 15442 clinical isolates; type: functional
[39] = tested on: Escherichia coli; test: microbe, parasite or virus in culture; conditions: ATCC 1411
Description: Antibacterial activity against Escherichia coli ATCC 1411 clinical isolates after 18 to 20 hrs in aerobic condition by CLSI-based broth microdilution assay

[40] = tested on: Pseudomonas aeruginosa; test: microbe, parasite or virus in culture; conditions: ATCC 25619
Description: Antibacterial activity against Pseudomonas aeruginosa ATCC 25619 clinical isolates after 18 to 20 hrs in aerobic condition by CLSI-based broth microdilution assay

SMILES	MIC [1]	MIC [2]	MIC [3]	MIC [4]	MIC [5]	MIC [6]	Activity [7]	MIC [8]	MIC [9]	MIC [10]	MIC [11]	MIC [12]	MIC [13]	MIC [14]	MIC [15]	MIC [16]	MIC [17]	MIC [18]	MIC [19]	MIC [20]	also measured
C/C(=N\NC(=N)N)c1cnn(-c2ccc(C#CC3CCCC3)cc2)c1C	1 µg/mL (≈ 2.87 µM)	0.5 µg/mL (≈ 1.43 µM)	2 µg/mL (≈ 5.74 µM)	1 µg/mL (≈ 2.87 µM)	0.5 µg/mL (≈ 1.43 µM)	1 µg/mL (≈ 2.87 µM)	Active	0.5 µg/mL (≈ 1.43 µM)	0.5 µg/mL (≈ 1.43 µM)	4 µg/mL (≈ 11.5 µM)	4 µg/mL (≈ 11.5 µM)	8 µg/mL (≈ 23 µM)	4 µg/mL (≈ 11.5 µM)	8 µg/mL (≈ 23 µM)	4 µg/mL (≈ 11.5 µM)	8 µg/mL (≈ 23 µM)	8 µg/mL (≈ 23 µM)	8 µg/mL (≈ 23 µM)	16 µg/mL (≈ 45.9 µM)	16 µg/mL (≈ 45.9 µM)	inhibition [21]: inactive; Ratio [22]: <=2; Ratio [23]: <3; Ratio [24]: <3; Ratio [25]: <3; Ratio [26]: >=1; Ratio [27]: >=1; Ratio [28]: >=1; Ratio [29]: >=1; Ratio [30]: >=1; Ratio [31]: > 1; Ratio [32]: >=1; Ratio [33]: >=1; Ratio [34]: >=1; Ratio [35]: >=1; Ratio [36]: >=1; Ratio [37]: >=1; Ratio [38]: >=1; MIC [39]: 8 µg/mL (≈ 23 µM); MIC [40]: 16 µg/mL (≈ 45.9 µM)
C/C(=N\NC1=NCCN1)c1cnn(-c2ccc(C#CC3CCCC3)cc2)c1C	4 µg/mL (≈ 10.7 µM)	1 µg/mL (≈ 2.67 µM)	4 µg/mL (≈ 10.7 µM)	4 µg/mL (≈ 10.7 µM)	8 µg/mL (≈ 21.4 µM)	4 µg/mL (≈ 10.7 µM)	Active	8 µg/mL (≈ 21.4 µM)	4 µg/mL (≈ 10.7 µM)	16 µg/mL (≈ 42.7 µM)	8 µg/mL (≈ 21.4 µM)	64 µg/mL (≈ 171 µM)	32 µg/mL (≈ 85.4 µM)	32 µg/mL (≈ 85.4 µM)	32 µg/mL (≈ 85.4 µM)	32 µg/mL (≈ 85.4 µM)	64 µg/mL (≈ 171 µM)	64 µg/mL (≈ 171 µM)	64 µg/mL (≈ 171 µM)	32 µg/mL (≈ 85.4 µM)	inhibition [21]: inactive; Ratio [22]: <=2; Ratio [23]: <3; Ratio [24]: <3; Ratio [25]: <3; Ratio [26]: >=1; Ratio [27]: >=1; Ratio [28]: >=1; Ratio [29]: >=1; Ratio [30]: >=1; Ratio [31]: > 1; Ratio [32]: >=1; Ratio [33]: >=1; Ratio [34]: >=1; Ratio [35]: >=1; Ratio [36]: >=1; Ratio [37]: >=1; Ratio [38]: >=1; MIC [39]: 64 µg/mL (≈ 171 µM); MIC [40]: 64 µg/mL (≈ 171 µM)
